Reference: patent US20080171742A1, “4-(Pyrid-2-Yl) Amino Substituted Pyrimidine as Protein Kinase Inhibitors” (AsraZeneca, priority 2005, published 2008)

Tested on: murine fibroblasts (NIH3T3) over-expressing human IGF-1 receptor
Assay: Inhibition of IGF-stimulated cell proliferation (BrdU incorporation), Test (c)
Format: cell-based
Conditions: NIH3T3/IGFR cells, IGF-1 20 ng/ml
Method: The construction of murine fibroblasts (NIH3T3) over-expressing human IGF-1 receptor has been described by Lammers et al (EMBO J, 8, 1369-1375, 1989). These cells show a proliferative response to IGF-I which can be measured by BrdU incorporation into newly synthesised DNA. Compound potency was determined as causing inhibition of the IGF-stimulated proliferation in the following assay:
Compounds are initially dissolved in DMSO to 10 mM, followed by dilutions in DMEM+1% FCS+glutamine to give a range from […] in 1-0.00045% DMSO final concentration in assay well.
Exponentially growing NIH3T3/IGFR cells were harvested and seeded in complete growth medium into a flat-bottomed 96 well tissue culture grade plate (Costar 3525) at 1.2×10^4 cells per well in a volume of 100 μl.
Growth medium was carefully removed from each well using a multi-channel pipette. Wells were carefully rinsed three times with 200 μl with HBSS. 100 μl of starvation medium was added to each well and the plate was re-incubated for 24 hours.
50 μl of a 4× concentrate of test compound was added to appropriate wells. Cells were incubated for 30 minutes with compound alone before the addition of IGF. […]
The incorporation of BrdU in the cells (after a 4 h incorporation period) was assessed using the BrdU Cell Proliferation Elisa according to the manufacturer's protocol.

## Cc1ccc(Nc2cc(C)nc(N3CCC[C@H]3c3cc(-c4ccccn4)no3)n2)nc1 [Example 13, S-6-Methyl-2-{2-[3-(pyrid-2-yl)isoxazol-5-yl]pyrrolidin-1-yl}-4-(5-methylpyrid-2-ylamino)pyrimidine]
  IC50: 130 nM

## Cc1cc(Nc2ccccn2)nc(N2CCC[C@H]2c2cc(-c3ccccn3)no2)n1 [Example 1, S-6-Methyl-2-{2-[3-(pyrid-2-yl)isoxazol-5-yl]pyrrolidin-1-yl}-4-(pyrid-2-ylamino)pyrimidine]
  IC50: 310 nM
